{"source": "the NIST ThermoML archive (doi:10.1021/acs.jced.9b00415)", "details": "for viscosity / mass density: 102 kPa, Liquid; for viscosity: Concentric cylinders viscometry; for mass density: Vibrating tube method", "note": "Numbers after ± are expanded uncertainties.", "data": [{"smiles": "CCCCn1cc[n+](C)c1.[Cl-]", "note": "[1-butyl-3-methylimidazolium chloride]", "values": [{"measurement": "viscosity", "setting": "343.15 K", "value": "256.7 ± 26", "unit": "mPa·s"}, {"measurement": "mass density", "setting": "343.15 K", "value": "1057.5 ± 2.9", "unit": "kg/m3"}, {"measurement": "viscosity", "setting": "348.15 K", "value": "189.4 ± 19", "unit": "mPa·s"}, {"measurement": "mass density", "setting": "348.15 K", "value": "1054.8 ± 2.9", "unit": "kg/m3"}, {"measurement": "viscosity", "setting": "353.15 K", "value": "142.7 ± 15", "unit": "mPa·s"}, {"measurement": "mass density", "setting": "353.15 K", "value": "1052 ± 2.8", "unit": "kg/m3"}, {"measurement": "viscosity", "setting": "358.15 K", "value": "109.6 ± 11", "unit": "mPa·s"}, {"measurement": "mass density", "setting": "358.15 K", "value": "1049.3 ± 2.8", "unit": "kg/m3"}, {"measurement": "viscosity", "setting": "363.15 K", "value": "85.65 ± 8.7", "unit": "mPa·s"}, {"measurement": "mass density", "setting": "363.15 K", "value": "1046.5 ± 2.8", "unit": "kg/m3"}, {"measurement": "Triple point temperature", "setting": "Crystal, DSC", "value": "342 ± 6", "unit": "K"}, {"measurement": "Glass transition temperature", "setting": "Glass, DSC", "value": "-42 ± 6", "unit": "°C"}]}, {"smiles": "CCCCn1cc[n+](C)c1.CS(=O)(=O)[O-]", "note": "[1-butyl-3-methylimidazolium methanesulfonate]", "values": [{"measurement": "viscosity", "setting": "348.15 K", "value": "36.51 ± 3.7", "unit": "mPa·s"}, {"measurement": "mass density", "setting": "348.15 K", "value": "1139.4 ± 2.5", "unit": "kg/m3"}, {"measurement": "viscosity", "setting": "353.15 K", "value": "30.57 ± 3.1", "unit": "mPa·s"}, {"measurement": "mass density", "setting": "353.15 K", "value": "1136.3 ± 2.5", "unit": "kg/m3"}, {"measurement": "viscosity", "setting": "358.15 K", "value": "25.89 ± 2.6", "unit": "mPa·s"}, {"measurement": "mass density", "setting": "358.15 K", "value": "1133.1 ± 2.5", "unit": "kg/m3"}, {"measurement": "viscosity", "setting": "363.15 K", "value": "22.16 ± 2.2", "unit": "mPa·s"}, {"measurement": "mass density", "setting": "363.15 K", "value": "1130 ± 2.5", "unit": "kg/m3"}, {"measurement": "Triple point temperature", "setting": "Crystal, DSC", "value": "348 ± 6", "unit": "K"}]}, {"smiles": "CCCCn1cc[n+](C)c1.O=[N+]([O-])[O-]", "note": "[1-butyl-3-methylimidazolium nitrate]", "values": [{"measurement": "viscosity", "setting": "303.15 K", "value": "148.1 ± 15", "unit": "mPa·s"}, {"measurement": "mass density", "setting": "303.15 K", "value": "1151.9 ± 2.8", "unit": "kg/m3"}, {"measurement": "viscosity", "setting": "308.15 K", "value": "112.9 ± 11", "unit": "mPa·s"}, {"measurement": "mass density", "setting": "308.15 K", "value": "1148.7 ± 2.8", "unit": "kg/m3"}, {"measurement": "viscosity", "setting": "313.15 K", "value": "87.87 ± 8.9", "unit": "mPa·s"}, {"measurement": "mass density", "setting": "313.15 K", "value": "1145.5 ± 2.8", "unit": "kg/m3"}, {"measurement": "viscosity", "setting": "318.15 K", "value": "69.65 ± 7", "unit": "mPa·s"}, {"measurement": "mass density", "setting": "318.15 K", "value": "1142.3 ± 2.8", "unit": "kg/m3"}, {"measurement": "viscosity", "setting": "323.15 K", "value": "56.17 ± 5.7", "unit": "mPa·s"}, {"measurement": "mass density", "setting": "323.15 K", "value": "1139.2 ± 2.8", "unit": "kg/m3"}, {"measurement": "viscosity", "setting": "328.15 K", "value": "45.97 ± 4.6", "unit": "mPa·s"}, {"measurement": "mass density", "setting": "328.15 K", "value": "1136.1 ± 2.8", "unit": "kg/m3"}, {"measurement": "viscosity", "setting": "333.15 K", "value": "38.11 ± 3.8", "unit": "mPa·s"}, {"measurement": "mass density", "setting": "333.15 K", "value": "1133.1 ± 2.8", "unit": "kg/m3"}, {"measurement": "viscosity", "setting": "338.15 K", "value": "32.05 ± 3.2", "unit": "mPa·s"}, {"measurement": "mass density", "setting": "338.15 K", "value": "1130 ± 2.7", "unit": "kg/m3"}, {"measurement": "viscosity", "setting": "343.15 K", "value": "27.29 ± 2.8", "unit": "mPa·s"}, {"measurement": "mass density", "setting": "343.15 K", "value": "1127 ± 2.7", "unit": "kg/m3"}, {"measurement": "viscosity", "setting": "348.15 K", "value": "23.4 ± 2.4", "unit": "mPa·s"}, {"measurement": "mass density", "setting": "348.15 K", "value": "1123.9 ± 2.7", "unit": "kg/m3"}, {"measurement": "viscosity", "setting": "353.15 K", "value": "20.29 ± 2.1", "unit": "mPa·s"}, {"measurement": "mass density", "setting": "353.15 K", "value": "1120.9 ± 2.7", "unit": "kg/m3"}, {"measurement": "viscosity", "setting": "358.15 K", "value": "17.73 ± 1.8", "unit": "mPa·s"}, {"measurement": "mass density", "setting": "358.15 K", "value": "1117.9 ± 2.7", "unit": "kg/m3"}, {"measurement": "viscosity", "setting": "363.15 K", "value": "15.61 ± 1.6", "unit": "mPa·s"}, {"measurement": "mass density", "setting": "363.15 K", "value": "1115 ± 2.7", "unit": "kg/m3"}, {"measurement": "Triple point temperature", "setting": "Crystal 1, DSC", "value": "308 ± 6", "unit": "K"}, {"measurement": "Triple point temperature", "setting": "Crystal 4, DSC", "value": "279 ± 6", "unit": "K"}]}]}
